Results from patent US10538555B2, “Macrocyclic inhibitors of the PD-1/PD-L1 and CD80(B7-1)/PD-L1 protein/protein interactions” (BRISTOL-MYERS SQUIBB COMPANY, priority 2014, dated 2020).
Like-named read-outs stand apart in the source and are kept apart here. Where a SMILES comes first, the peptide text is derived from it. Bridges are numbered along the chain shown (N, C = ends). [ ]: non-standard residue; d: D form. ξ: configuration not given here. Trp(1-CH2COOH) = N[C@@H](Cc1cn(CC(=O)O)c2ccccc12)C(=O)O; Trp(5-OH) = N[C@@H](Cc1c[nH]c2ccc(O)cc12)C(=O)O; d(cisHyp) = O=C(O)[C@H]1C[C@@H](O)CN1; Bta = N[C@@H](Cc1csc2ccccc12)C(=O)O; Hyp = O=C(O)[C@@H]1C[C@@H](O)CN1; dHyp = O=C(O)[C@H]1C[C@H](O)CN1; Thr(3ξ) = CC(O)[C@H](N)C(=O)O; NMeNle = CCCC[C@H](NC)C(=O)O; NMeA = CN[C@@H](C)C(=O)O; Dab = NCC[C@H](N)C(=O)O; Dap = NC[C@H](N)C(=O)O; ξC = NC(CS)C(=O)O

Target: T1, Human PD-L1/PD-1 (Homo sapiens, UniProt Q9NZQ7)
T1 construct: TVMV protease cleavage site (C); made in house; host or cells: HEK293T cells
T1 sequence (Q9NZQ7 with tags, fused parts or gaps): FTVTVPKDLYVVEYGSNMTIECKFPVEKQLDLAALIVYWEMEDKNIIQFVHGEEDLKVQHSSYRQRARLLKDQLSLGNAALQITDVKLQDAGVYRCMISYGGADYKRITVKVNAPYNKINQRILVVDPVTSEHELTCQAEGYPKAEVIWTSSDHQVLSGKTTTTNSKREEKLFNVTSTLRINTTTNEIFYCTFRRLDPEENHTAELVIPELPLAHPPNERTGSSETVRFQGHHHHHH
Test: HTRF Human PD-L1/PD-1 binding assay (PD-1-Ig/PD-L1-His)
Settings: PD-L1-His 10 nM, PD-1-Ig 20 nM
Summary of the method: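 HTRF read-out (665/620 nm ratio) after 30 min equilibration with Eu-cryptate anti-Ig mAb (1 nM) and APC anti-His mAb (20 nM). Peptides preincubated 15 min with PD-L1-His (10 nM), then PD-1-Ig (20 nM) added for 15 min.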

[1] = class symbol, read-out: HTRF Human PD-L1/PD-1 Binding Assay IC50 Range

Work on `CCCC[C@H]1C(=O)N(C)[C@@H](CCCC)C(=O)N[C@@H](CO)C(=O)N[C@H](C(=O)NCC(N)=O)CSCC(=O)N[C@@H](Cc2ccc(OC)cc2)C(=O)N(C)[C@@H](C)C(=O)N[C@@H](CC(N)=O)C(=O)N2CCC[C@H]2C(=O)N[C@@H](Cc2c[nH]cn2)C(=O)N[C@@H](CCC(N)=O)C(=O)N2C[C@H](O)C[C@H]2C(=O)N[C@@H](Cc2c[nH]c3ccccc23)C(=O)N[C@@H](CO)C(=O)N[C@@H](Cc2cn(CC(=O)O)c3ccccc23)C(=O)N1C` [Example 7143] ({CH2CO}-Y(Me)[NMeA]NPHQ[Hyp]WS[Trp(1-CH2COOH)][NMeNle][NMeNle]SCG-NH2; thioether N-14) yielded an IC50 [1] of 1 to 9.9 nM.
`CCCC[C@H]1C(=O)N(C)[C@@H](CCCC)C(=O)N[C@@H](CO)C(=O)N[C@H](C(=O)NCC(N)=O)CSCC(=O)N[C@@H](Cc2ccc(OC)cc2)C(=O)N(C)[C@@H](C)C(=O)N[C@@H](CC(N)=O)C(=O)N2CCC[C@H]2C(=O)N[C@@H](CO)C(=O)N[C@@H](CCC(N)=O)C(=O)N2C[C@H](O)C[C@H]2C(=O)N[C@@H](Cc2c[nH]c3ccccc23)C(=O)N[C@@H](CO)C(=O)N[C@@H](Cc2cn(CC(=O)O)c3ccccc23)C(=O)N1C` [Example 7144] ({CH2CO}-Y(Me)[NMeA]NPSQ[Hyp]WS[Trp(1-CH2COOH)][NMeNle][NMeNle]SCG-NH2; thioether N-14) showed an IC50 [1] of 1 to 9.9 nM.
With `CCCC[C@H]1C(=O)N(C)[C@@H](CCCC)C(=O)N[C@@H](C(C)O)C(=O)N[C@H](C(=O)NCC(N)=O)CSCC(=O)N[C@@H](Cc2ccc(OC)cc2)C(=O)N(C)[C@@H](C)C(=O)N[C@@H](CC(N)=O)C(=O)N2CCC[C@H]2C(=O)N[C@@H](Cc2c[nH]cn2)C(=O)N[C@@H](CCC(N)=O)C(=O)N2C[C@H](O)C[C@H]2C(=O)N[C@@H](Cc2c[nH]c3ccccc23)C(=O)N[C@@H](CO)C(=O)N[C@@H](Cc2cn(CC(=O)O)c3ccccc23)C(=O)N1C` (stereo partly drawn) [Example 7145] ({CH2CO}-Y(Me)[NMeA]NPHQ[Hyp]WS[Trp(1-CH2COOH)][NMeNle][NMeNle][Thr(3ξ)]CG-NH2; thioether N-14) the IC50 [1] was 1 to 9.9 nM.
`CCCC[C@H]1C(=O)N(C)[C@@H](CCCC)C(=O)N[C@@H](CCC(=O)O)C(=O)N[C@H](C(=O)NCC(N)=O)CSCC(=O)N[C@@H](Cc2ccc(OC)cc2)C(=O)N(C)[C@@H](C)C(=O)N[C@@H](CC(N)=O)C(=O)N2CCC[C@H]2C(=O)N[C@@H](CN)C(=O)N[C@@H](CCCCN)C(=O)N2C[C@H](O)C[C@H]2C(=O)N[C@@H](Cc2c[nH]c3ccccc23)C(=O)N[C@@H](CCN)C(=O)N[C@@H](Cc2cn(CC(=O)O)c3ccccc23)C(=O)N1C` [Example 7146] ({CH2CO}-Y(Me)[NMeA]NP[Dap]K[Hyp]W[Dab][Trp(1-CH2COOH)][NMeNle][NMeNle]ECG-NH2; thioether N-14) showed an IC50 [1] of 10 to 99.9 nM.
Work on `CCCC[C@H]1C(=O)N(C)[C@@H](CCCC)C(=O)N[C@@H](CCC(=O)O)C(=O)N[C@H](C(=O)NCC(N)=O)CSCC(=O)N[C@@H](Cc2ccc(OC)cc2)C(=O)N(C)[C@@H](C)C(=O)N[C@@H](CC(=O)O)C(=O)N2CCC[C@H]2C(=O)N[C@@H](Cc2c[nH]cn2)C(=O)N[C@@H](CCCCN)C(=O)N2C[C@H](O)C[C@H]2C(=O)N[C@@H](Cc2c[nH]c3ccccc23)C(=O)N[C@@H](CCN)C(=O)N[C@@H](Cc2cn(CC(=O)O)c3ccccc23)C(=O)N1C` [Example 7147] ({CH2CO}-Y(Me)[NMeA]DPHK[Hyp]W[Dab][Trp(1-CH2COOH)][NMeNle][NMeNle]ECG-NH2; thioether N-14) yielded an IC50 [1] of 1 to 9.9 nM.
In the case of `CCCC[C@H]1C(=O)N(C)[C@@H](CCCC)C(=O)N[C@@H](CCC(=O)O)C(=O)N[C@H](C(=O)NCC(N)=O)CSCC(=O)N[C@@H](Cc2ccc(OC)cc2)C(=O)N(C)[C@@H](C)C(=O)N[C@@H](CC(=O)O)C(=O)N2CCC[C@H]2C(=O)N[C@@H](CN)C(=O)N[C@@H](CCCCN)C(=O)N2C[C@H](O)C[C@H]2C(=O)N[C@@H](Cc2c[nH]c3ccccc23)C(=O)N[C@@H](CCN)C(=O)N[C@@H](Cc2cn(CC(=O)O)c3ccccc23)C(=O)N1C` [Example 7148] ({CH2CO}-Y(Me)[NMeA]DP[Dap]K[Hyp]W[Dab][Trp(1-CH2COOH)][NMeNle][NMeNle]ECG-NH2; thioether N-14), the IC50 [1] is reported as 1 to 9.9 nM.
`CCCC[C@H]1C(=O)N(C)[C@@H](CCCC)C(=O)N[C@@H](CC(C)C)C(=O)N[C@H](C(=O)NCC(N)=O)CSCC(=O)N[C@@H](Cc2ccc(OC)cc2)C(=O)N(C)[C@@H](C)C(=O)N[C@@H](CC(N)=O)C(=O)N2CCC[C@@H]2C(=O)N[C@@H](CN)C(=O)N[C@@H](C(C)C)C(=O)N2C[C@@H](O)C[C@@H]2C(=O)N[C@@H](Cc2c[nH]c3ccccc23)C(=O)N[C@@H](CCN)C(=O)N[C@@H](Cc2cn(CC(=O)O)c3ccccc23)C(=O)N1C` [Example 7151] ({CH2CO}-Y(Me)[NMeA]N[dP][Dap]V[dHyp]W[Dab][Trp(1-CH2COOH)][NMeNle][NMeNle]LCG-NH2; thioether N-14) was tested, and the IC50 [1] was 1 to 9.9 nM.
`CCCC[C@H]1C(=O)N(C)[C@@H](CCCC)C(=O)N[C@@H](CCC(=O)O)C(=O)N[C@H](C(=O)NCC(N)=O)CSCC(=O)N[C@@H](Cc2ccc(OC)cc2)C(=O)N(C)[C@@H](C)C(=O)N[C@@H](CC(=O)O)C(=O)N2CCC[C@H]2C(=O)N[C@@H](CN)C(=O)N[C@@H](CCC(=O)O)C(=O)N2C[C@H](O)C[C@H]2C(=O)N[C@@H](Cc2c[nH]c3ccccc23)C(=O)N[C@@H](CCN)C(=O)N[C@@H](Cc2c[nH]c3ccc(O)cc23)C(=O)N1C` [Example 7152] ({CH2CO}-Y(Me)[NMeA]DP[Dap]E[Hyp]W[Dab][Trp(5-OH)][NMeNle][NMeNle]ECG-NH2; thioether N-14) was tested, and the IC50 [1] was 10 to 99.9 nM.
`CCCC[C@H]1C(=O)N(C)[C@@H](CCCC)C(=O)N[C@@H](CC(C)C)C(=O)N[C@H](C(=O)NCC(N)=O)CSCC(=O)N[C@@H](Cc2ccc(OC)cc2)C(=O)N(C)[C@@H](C)C(=O)N[C@@H](CC(=O)O)C(=O)N2CCC[C@H]2C(=O)N[C@@H](Cc2cnc[nH]2)C(=O)N[C@@H](CCCCN)C(=O)N2C[C@H](O)C[C@@H]2C(=O)N[C@@H](Cc2c[nH]c3ccccc23)C(=O)N[C@@H](CCCCN)C(=O)N[C@@H](Cc2cn(CC(=O)O)c3ccccc23)C(=O)N1C` [Example 7153] ({CH2CO}-Y(Me)[NMeA]DPHK[d(cisHyp)]WK[Trp(1-CH2COOH)][NMeNle][NMeNle]LCG-NH2; thioether N-14) showed an IC50 [1] of 1 to 9.9 nM.
For `CCCC[C@H]1C(=O)N(C)[C@@H](CCCC)C(=O)N[C@@H](CC(C)C)C(=O)N[C@H](C(=O)NCC(N)=O)CSCC(=O)N[C@@H](Cc2ccc(OC)cc2)C(=O)N(C)[C@@H](C)C(=O)N[C@@H](CC(=O)O)C(=O)N2CCC[C@H]2C(=O)N[C@@H](Cc2cnc[nH]2)C(=O)N[C@@H](CCCCN)C(=O)N2C[C@H](O)C[C@@H]2C(=O)N[C@@H](Cc2c[nH]c3ccccc23)C(=O)N[C@@H](CCCCN)C(=O)N[C@@H](Cc2cn(CC(=O)O)c3ccccc23)C(=O)N1C` [Example 7154] ({CH2CO}-Y(Me)[NMeA]DPHK[d(cisHyp)]WK[Trp(1-CH2COOH)][NMeNle][NMeNle]LCG-NH2; thioether N-14), the IC50 [1] was 10 to 99.9 nM.
`CCCC[C@H]1C(=O)N(C)[C@@H](C)C(=O)N[C@@H](CCCNC(=N)N)C(=O)NC(C(=O)NCC(N)=O)CSCC(=O)N[C@@H](Cc2ccc(O)cc2)C(=O)N(C)[C@@H](C)C(=O)N[C@@H](CC(N)=O)C(=O)N2CCC[C@H]2C(=O)N[C@@H](CO)C(=O)N[C@H](CC(C)C)C(=O)N2C[C@H](O)C[C@H]2C(=O)N[C@@H](Cc2c[nH]c3ccccc23)C(=O)N[C@@H](CO)C(=O)N[C@@H](Cc2c[nH]c3ccccc23)C(=O)N1C` (stereo partly drawn) [Example 9115] ({CH2CO}-Y[NMeA]NPS[dL][Hyp]WSW[NMeNle][NMeA]R[ξC]G-NH2; thioether N-14) was tested, and the IC50 [1] was 10 to 99.9 nM.
`CCCC[C@H]1C(=O)N(C)[C@@H](C)C(=O)N[C@@H](CCCNC(=N)N)C(=O)NC(C(=O)NCC(N)=O)CSCC(=O)N[C@@H](Cc2ccc(O)cc2)C(=O)N(C)[C@@H](C)C(=O)N[C@@H](CC(N)=O)C(=O)N2CCC[C@H]2C(=O)N[C@@H](CO)C(=O)N[C@H](CC(C)C)C(=O)N2C[C@H](O)C[C@H]2C(=O)N[C@@H](Cc2c[nH]c3ccccc23)C(=O)N[C@@H](CO)C(=O)N[C@@H](Cc2csc3ccccc23)C(=O)N1C` (stereo partly drawn) [Example 9116] ({CH2CO}-Y[NMeA]NPS[dL][Hyp]WS[Bta][NMeNle][NMeA]R[ξC]G-NH2; thioether N-14) gave an IC50 [1] of 10 to 99.9 nM.
In the case of `CCCC[C@H]1C(=O)N(C)[C@@H](C)C(=O)N[C@@H](CCCNC(=N)N)C(=O)NC(C(=O)NCC(N)=O)CSCC(=O)N[C@@H](Cc2ccc(O)cc2)C(=O)N(C)[C@@H](C)C(=O)N[C@@H](CC(N)=O)C(=O)N2CCC[C@H]2C(=O)N[C@@H](Cc2cnc[nH]2)C(=O)N[C@H](CO)C(=O)N2CCC[C@H]2C(=O)N[C@@H](Cc2c[nH]c3ccccc23)C(=O)N[C@@H](CO)C(=O)N[C@@H](Cc2c[nH]c3ccccc23)C(=O)N1C` (stereo partly drawn) [Example 9117] ({CH2CO}-Y[NMeA]NPH[dS]PWSW[NMeNle][NMeA]R[ξC]G-NH2; thioether N-14), the IC50 [1] is reported as 10 to 99.9 nM.
With `CCCC[C@H]1C(=O)N(C)[C@@H](C)C(=O)N[C@@H](CCCNC(=N)N)C(=O)NC(C(=O)NCC(N)=O)CSCC(=O)N[C@@H](Cc2ccc(O)cc2)C(=O)N(C)[C@@H](C)C(=O)N[C@@H](CC(N)=O)C(=O)N2CCC[C@H]2C(=O)N[C@@H](Cc2cnc[nH]2)C(=O)N[C@H](CO)C(=O)N2CCC[C@H]2C(=O)N[C@@H](Cc2c[nH]c3ccccc23)C(=O)N[C@@H](CO)C(=O)N[C@@H](Cc2csc3ccccc23)C(=O)N1C` (stereo partly drawn) [Example 9118] ({CH2CO}-Y[NMeA]NPH[dS]PWS[Bta][NMeNle][NMeA]R[ξC]G-NH2; thioether N-14) the IC50 (read-out: HTRF Human PD-L1/PD-1 Binding Assay IC50) was 27 nM.
For `CCCC[C@H]1C(=O)N(C)[C@@H](C)C(=O)N[C@@H](CCCNC(=N)N)C(=O)NC(C(=O)NCC(N)=O)CSCC(=O)N[C@@H](Cc2ccc(O)cc2)C(=O)N(C)[C@@H](C)C(=O)N[C@@H](CC(N)=O)C(=O)N2CCC[C@H]2C(=O)N[C@@H](Cc2cnc[nH]2)C(=O)N[C@H](CO)C(=O)N2C[C@H](O)C[C@H]2C(=O)N[C@@H](Cc2c[nH]c3ccccc23)C(=O)N[C@@H](CO)C(=O)N[C@@H](Cc2c[nH]c3ccccc23)C(=O)N1C` (stereo partly drawn) [Example 9119] ({CH2CO}-Y[NMeA]NPH[dS][Hyp]WSW[NMeNle][NMeA]R[ξC]G-NH2; thioether N-14), the IC50 [1] was 10 to 99.9 nM.
